Test results: the Kinase Knowledgebase extract (Sharma et al. 2016)

Key:
PIK3CD (Human) = PIK3CD (Human) (UniProt O00329); assay: Enzyme Assay
PIK3CG (human) = PIK3CG (human) (UniProt P48736); assay: Enzyme Assay
Chain of PIK3CG (human) (P48736 whole entry, looked up): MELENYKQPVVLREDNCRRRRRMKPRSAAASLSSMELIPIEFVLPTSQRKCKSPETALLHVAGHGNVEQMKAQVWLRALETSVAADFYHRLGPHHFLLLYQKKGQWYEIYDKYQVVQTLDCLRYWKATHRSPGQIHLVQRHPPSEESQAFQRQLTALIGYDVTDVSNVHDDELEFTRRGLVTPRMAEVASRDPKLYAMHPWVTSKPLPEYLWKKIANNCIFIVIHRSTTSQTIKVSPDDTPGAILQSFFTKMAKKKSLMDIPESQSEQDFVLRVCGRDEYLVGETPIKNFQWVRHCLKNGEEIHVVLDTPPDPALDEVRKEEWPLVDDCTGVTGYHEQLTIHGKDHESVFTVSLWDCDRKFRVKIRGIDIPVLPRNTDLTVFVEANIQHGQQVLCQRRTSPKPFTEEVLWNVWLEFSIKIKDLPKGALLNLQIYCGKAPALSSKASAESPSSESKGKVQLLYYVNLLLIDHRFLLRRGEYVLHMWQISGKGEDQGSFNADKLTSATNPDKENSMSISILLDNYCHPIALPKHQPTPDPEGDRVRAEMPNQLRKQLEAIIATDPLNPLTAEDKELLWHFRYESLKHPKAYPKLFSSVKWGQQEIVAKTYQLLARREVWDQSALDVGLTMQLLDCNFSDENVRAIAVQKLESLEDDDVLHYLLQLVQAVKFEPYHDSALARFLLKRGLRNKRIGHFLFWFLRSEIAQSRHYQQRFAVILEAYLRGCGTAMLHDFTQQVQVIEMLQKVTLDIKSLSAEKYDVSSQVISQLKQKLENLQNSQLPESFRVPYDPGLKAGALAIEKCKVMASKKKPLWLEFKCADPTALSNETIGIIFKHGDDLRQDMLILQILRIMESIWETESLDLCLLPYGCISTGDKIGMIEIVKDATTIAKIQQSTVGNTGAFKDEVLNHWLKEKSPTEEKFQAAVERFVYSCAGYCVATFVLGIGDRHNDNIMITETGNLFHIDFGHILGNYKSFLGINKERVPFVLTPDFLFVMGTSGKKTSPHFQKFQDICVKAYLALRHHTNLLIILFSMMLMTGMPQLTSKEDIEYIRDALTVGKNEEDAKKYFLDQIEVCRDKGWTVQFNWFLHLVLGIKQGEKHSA

Chain of PIK3CD (Human) (O00329 whole entry, looked up): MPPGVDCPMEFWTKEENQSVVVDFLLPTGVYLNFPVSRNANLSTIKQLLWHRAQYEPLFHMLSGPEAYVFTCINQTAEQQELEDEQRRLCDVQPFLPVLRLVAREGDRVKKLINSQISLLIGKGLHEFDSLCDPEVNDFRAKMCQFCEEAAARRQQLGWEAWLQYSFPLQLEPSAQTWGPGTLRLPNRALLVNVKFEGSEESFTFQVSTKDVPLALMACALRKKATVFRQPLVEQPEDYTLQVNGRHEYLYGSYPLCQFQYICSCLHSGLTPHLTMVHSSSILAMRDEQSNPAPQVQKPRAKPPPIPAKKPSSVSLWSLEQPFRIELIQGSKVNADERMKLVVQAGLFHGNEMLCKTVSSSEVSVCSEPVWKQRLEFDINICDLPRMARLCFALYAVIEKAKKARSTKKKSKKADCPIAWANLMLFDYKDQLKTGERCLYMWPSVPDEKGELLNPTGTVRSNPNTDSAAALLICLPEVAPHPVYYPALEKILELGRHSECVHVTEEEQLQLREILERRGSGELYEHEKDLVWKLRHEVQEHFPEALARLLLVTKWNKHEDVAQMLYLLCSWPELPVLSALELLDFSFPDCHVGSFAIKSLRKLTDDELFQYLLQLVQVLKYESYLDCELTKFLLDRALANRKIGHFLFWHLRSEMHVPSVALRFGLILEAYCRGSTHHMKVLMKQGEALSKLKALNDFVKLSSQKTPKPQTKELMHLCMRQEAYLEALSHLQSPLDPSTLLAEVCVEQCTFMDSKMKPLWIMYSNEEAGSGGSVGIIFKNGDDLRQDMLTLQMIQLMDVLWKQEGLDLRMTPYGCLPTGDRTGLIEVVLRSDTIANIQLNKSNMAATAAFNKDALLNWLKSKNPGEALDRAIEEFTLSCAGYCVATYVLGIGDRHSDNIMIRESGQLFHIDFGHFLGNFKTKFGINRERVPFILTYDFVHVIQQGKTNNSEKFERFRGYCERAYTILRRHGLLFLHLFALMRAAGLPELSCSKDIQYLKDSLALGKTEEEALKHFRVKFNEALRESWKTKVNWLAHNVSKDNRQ

CCC(Nc1nc(N)ncc1-c1cncc(S(=O)(=O)Nc2ccc(F)c(Cl)c2)c1)c1nc2cccc(F)c2c(=O)n1-c1ccccc1 (configuration not stated)
IC50 (PIK3CD (Human)): < 20 nM
IC50 (PIK3CG (human)): 20 to 100 nM

CCC(Nc1nc(N)nc(C)c1/C=C/C(N)=O)c1nc2cccc(C)c2c(=O)n1-c1ccccc1 (configuration not stated)
IC50 (PIK3CD (Human)): < 10 nM

CCC(Nc1nc(N)ncc1-c1cncc(S(=O)(=O)Nc2ccccc2F)c1)c1nc2cccc(F)c2c(=O)n1-c1ccccc1 (configuration not stated)
IC50 (PIK3CD (Human)): < 20 nM
IC50 (PIK3CG (human)): 20 to 100 nM

CCC(Nc1nc(N)ncc1-c1cncc(S(=O)(=O)NC(C)(C)C)c1)c1nc2cccc(C)c2c(=O)n1-c1ccccc1 (configuration not stated)
IC50 (PIK3CD (Human)): < 20 nM
IC50 (PIK3CG (human)): 20 to 100 nM

CCC(Nc1nc(N)ncc1-c1cncc(S(=O)(=O)C(C)C)c1)c1nc2cccc(F)c2c(=O)n1-c1ccccc1 (configuration not stated)
IC50 (PIK3CD (Human)): 20 to 100 nM
IC50 (PIK3CG (human)): 100 to 1000 nM

CCC(Nc1nc(N)ncc1-c1cncc(S(=O)(=O)N2CCCC2)c1)c1nc2cccc(F)c2c(=O)n1-c1ccccc1 (configuration not stated)
IC50 (PIK3CD (Human)): < 20 nM
IC50 (PIK3CG (human)): < 20 nM

CCC(Nc1nc(N)nc(C)c1/C=C/C(=O)Nc1nccs1)c1nc2cccc(C)c2c(=O)n1-c1ccccc1 (configuration not stated)
IC50 (PIK3CD (Human)): < 10 nM

CCC(Nc1nc(N)nc(C)c1/C=C/C(=O)Nc1ccccn1)c1nc2cccc(C)c2c(=O)n1-c1ccccc1 (configuration not stated)
IC50 (PIK3CD (Human)): < 10 nM

CCC(Nc1nc(N)nc(C)c1/C=C/C(=O)N1CCNCC1)c1nc2cccc(C)c2c(=O)n1-c1ccccc1 (configuration not stated)
IC50 (PIK3CD (Human)): 10 to 100 nM

C=Cc1c(C)nc(N)nc1NC(CC)c1nc2cccc(C)c2c(=O)n1-c1ccccc1 (configuration not stated)
IC50 (PIK3CD (Human)): 10 to 100 nM

CCC(Nc1nc(N)nc(C)c1/C=C/C(=O)n1cccn1)c1nc2cccc(C)c2c(=O)n1-c1ccccc1 (configuration not stated)
IC50 (PIK3CD (Human)): 10 to 100 nM

CCC(Nc1nc(N)nc(C)c1/C=C/C(=O)Nc1cccc(C)n1)c1nc2cccc(C)c2c(=O)n1-c1ccccc1 (configuration not stated)
IC50 (PIK3CD (Human)): < 10 nM

CCC(Nc1nc(N)nc(C)c1/C=C/C(=O)Nc1cccnc1)c1nc2cccc(C)c2c(=O)n1-c1ccccc1 (configuration not stated)
IC50 (PIK3CD (Human)): < 10 nM

CCC(Nc1nc(N)nc(C)c1-c1cncc(S(N)(=O)=O)c1)c1nc2cccc(F)c2c(=O)n1-c1ccccc1 (configuration not stated)
IC50 (PIK3CD (Human)): 20 to 100 nM
IC50 (PIK3CG (human)): 100 to 1000 nM

CCC(Nc1nc(N)nc(C)c1/C=C1\CC(=O)NC1=O)c1nc2cccc(C)c2c(=O)n1-c1ccccc1 (configuration not stated)
IC50 (PIK3CD (Human)): 10 to 100 nM

CCC(Nc1nc(N)nc(C)c1/C=C/C(=O)Nc1ccncc1)c1nc2cccc(C)c2c(=O)n1-c1ccccc1 (configuration not stated)
IC50 (PIK3CD (Human)): 10 to 100 nM

CCC(Nc1nc(N)nc(C)c1/C=C/C(=O)NC(C)C)c1nc2cccc(C)c2c(=O)n1-c1ccccc1 (configuration not stated)
IC50 (PIK3CD (Human)): 10 to 100 nM

CCC(Nc1nc(N)ncc1-c1cncc(S(=O)(=O)Nc2ccccc2C)c1)c1nc2cccc(F)c2c(=O)n1-c1ccccc1 (configuration not stated)
IC50 (PIK3CD (Human)): < 20 nM
IC50 (PIK3CG (human)): 100 to 1000 nM

CCC(Nc1nc(N)ncc1-c1cncc(S(=O)(=O)N(C)C)c1)c1nc2cccc(F)c2c(=O)n1-c1ccccc1 (configuration not stated)
IC50 (PIK3CD (Human)): 20 to 100 nM
IC50 (PIK3CG (human)): 20 to 100 nM

CCC(Nc1nc(N)ncc1-c1cncc(S(N)(=O)=O)c1)c1nc2cccc(F)c2c(=O)n1-c1ccccc1 (configuration not stated)
IC50 (PIK3CD (Human)): 20 to 100 nM
IC50 (PIK3CG (human)): 20 to 100 nM

CCNC(=O)/C=C/c1c(C)nc(N)nc1NC(CC)c1nc2cccc(C)c2c(=O)n1-c1ccccc1 (configuration not stated)
IC50 (PIK3CD (Human)): 10 to 100 nM

CCC(Nc1nc(N)nc(C)c1/C=C/C(=O)NC)c1nc2cccc(C)c2c(=O)n1-c1ccccc1 (configuration not stated)
IC50 (PIK3CD (Human)): < 10 nM

CCC(Nc1nc(N)nc(C)c1/C=C/C(=O)N1CCOCC1)c1nc2cccc(C)c2c(=O)n1-c1ccccc1 (configuration not stated)
IC50 (PIK3CD (Human)): < 10 nM
